Our source for the EC50 values is PubChem BioAssay AID504328 (The Scripps Research Institute Molecular Screening Center, 2011).

For orientation: EC50 means the concentration that produces a half-maximal response.

In the test the target is Caspase-3 (Homo sapiens) (UniProt P42574). Nature of the test: procaspase-3 activation potency of dual hits, dose response, counter-screen for dual procaspase-3/7 activator project, biochemical, absorbance, PC-3 D3A mutant (AID 504328). To be noted: recombinant PC-3 D3A, Ac-DEVD-pNA absorbance 405 nm. For orientation: A counterscreen serves to expose hits that act by an unwanted route or on another target.
Caspase-3 (Homo sapiens), sequence (P42574 whole entry D9A/D28A/D175A): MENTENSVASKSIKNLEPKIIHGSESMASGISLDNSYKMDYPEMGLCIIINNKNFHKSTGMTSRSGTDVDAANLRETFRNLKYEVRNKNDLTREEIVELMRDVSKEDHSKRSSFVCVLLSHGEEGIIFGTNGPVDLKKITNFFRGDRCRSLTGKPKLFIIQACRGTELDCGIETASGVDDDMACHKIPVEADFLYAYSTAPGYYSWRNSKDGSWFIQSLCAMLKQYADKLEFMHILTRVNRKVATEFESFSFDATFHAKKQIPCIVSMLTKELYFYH

Active and inactive are the calls of the source.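 How the source made its calls: active means EC50 at or below 10 µM; inactive means EC50 above 10 µM.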

`CCOc1ccc(N=CC2=C(O)CC(c3ccco3)CC2=O)cc1` (stereo unspecified): the EC50 was > 85.3 µM (inactive).
